Laboratory results published in the NIST ThermoML archive (doi:10.1021/acs.jced.5b00934).

Settings: Liquid, Vibrating tube method

CCC(C)O (stereo not drawn) [butan-2-ol]
Settings | mass density [kg/m3]
303.15 K, 20032 kPa | 813.3
303.15 K, 21980 kPa | 814.6
303.15 K, 25089 kPa | 816.7
303.15 K, 27989 kPa | 818.6
303.15 K, 30014 kPa | 819.9
303.15 K, 32951 kPa | 821.7
303.15 K, 33007 kPa | 821.7
303.15 K, 33998 kPa | 822.3
303.15 K, 38048 kPa | 824.8
303.15 K, 40020 kPa | 826
303.15 K, 42004 kPa | 827.1
303.15 K, 44999 kPa | 828.9
303.15 K, 45386 kPa | 829.1
303.15 K, 48182 kPa | 830.7
303.15 K, 50063 kPa | 831.8
303.15 K, 51975 kPa | 832.8
303.16 K, 469 kPa | 798.5
303.16 K, 7034 kPa | 803.7
303.16 K, 9943 kPa | 806
303.16 K, 11919 kPa | 807.5
303.16 K, 15070 kPa | 809.8
303.16 K, 31992 kPa | 821.1
303.16 K, 35073 kPa | 823
303.16 K, 55053 kPa | 834.5
303.16 K, 57971 kPa | 836.1
303.16 K, 59945 kPa | 837.1
303.16 K, 62023 kPa | 838.2
303.16 K, 64910 kPa | 839.7
303.16 K, 66100 kPa | 840.3
308.15 K, 99 kPa | 793.9
308.15 K, 284 kPa | 794.1
308.15 K, 499 kPa | 794.3
308.15 K, 1030 kPa | 794.8
308.15 K, 2012 kPa | 795.6
308.15 K, 3016 kPa | 796.4
308.15 K, 10011 kPa | 802
308.15 K, 17937 kPa | 808
308.15 K, 31948 kPa | 817.5
308.15 K, 32957 kPa | 818.2
308.15 K, 33017 kPa | 818.2
308.15 K, 34003 kPa | 818.8
308.15 K, 38001 kPa | 821.3
308.15 K, 45022 kPa | 825.5
308.15 K, 50010 kPa | 828.4
308.15 K, 52016 kPa | 829.5
308.15 K, 54994 kPa | 831.2
308.15 K, 58005 kPa | 832.8
308.15 K, 60029 kPa | 833.9
308.16 K, 919 kPa | 794.6
308.16 K, 5009 kPa | 798.1
308.16 K, 7020 kPa | 799.7
308.16 K, 9036 kPa | 801.3
308.16 K, 11963 kPa | 803.6
308.16 K, 15014 kPa | 805.8
308.16 K, 19942 kPa | 809.4
308.16 K, 22125 kPa | 810.9
308.16 K, 25007 kPa | 813
308.16 K, 28001 kPa | 815
308.16 K, 30046 kPa | 816.3
308.16 K, 35061 kPa | 819.4
308.16 K, 40051 kPa | 822.5
308.16 K, 41974 kPa | 823.7
308.16 K, 47997 kPa | 827.2
308.16 K, 61986 kPa | 835
308.16 K, 64977 kPa | 836.6
308.16 K, 66129 kPa | 837.2
313.15 K, 97 kPa | 789.4
313.15 K, 331 kPa | 789.6
313.15 K, 521 kPa | 789.8
313.15 K, 925 kPa | 790.2
313.15 K, 1936 kPa | 791
313.15 K, 2964 kPa | 791.9
313.15 K, 10109 kPa | 797.8
313.15 K, 12051 kPa | 799.4
313.15 K, 22039 kPa | 806.9
313.15 K, 24988 kPa | 809
313.15 K, 27962 kPa | 811
313.15 K, 30012 kPa | 812.4
313.15 K, 32043 kPa | 813.7
313.15 K, 33039 kPa | 814.4
313.15 K, 33084 kPa | 814.4
313.15 K, 37907 kPa | 817.5
313.15 K, 42039 kPa | 820
313.15 K, 50005 kPa | 824.8
313.15 K, 58031 kPa | 829.3
313.16 K, 1053 kPa | 790.3
313.16 K, 5002 kPa | 793.7
313.16 K, 6986 kPa | 795.3
313.16 K, 8976 kPa | 797
313.16 K, 14996 kPa | 801.7
313.16 K, 17980 kPa | 803.9
313.16 K, 20012 kPa | 805.4
313.16 K, 34096 kPa | 815
313.16 K, 35045 kPa | 815.6
313.16 K, 40135 kPa | 818.9
313.16 K, 45006 kPa | 821.8
313.16 K, 48081 kPa | 823.7
313.16 K, 52025 kPa | 826
313.16 K, 55030 kPa | 827.7
313.16 K, 60001 kPa | 830.4
313.16 K, 62068 kPa | 831.6
313.16 K, 65053 kPa | 833.2
313.16 K, 66058 kPa | 833.7
318.15 K, 102 kPa | 784.8
318.15 K, 288 kPa | 785
318.15 K, 909 kPa | 785.5
318.15 K, 9293 kPa | 792.8
318.15 K, 12039 kPa | 795.1
318.15 K, 14977 kPa | 797.4
318.15 K, 17998 kPa | 799.8
318.15 K, 20024 kPa | 801.3
318.15 K, 24907 kPa | 804.9
318.15 K, 27973 kPa | 807.1
318.15 K, 30001 kPa | 808.5
318.15 K, 32873 kPa | 810.4
318.15 K, 33033 kPa | 810.4
318.15 K, 45210 kPa | 818.3
318.15 K, 48072 kPa | 820.1
318.15 K, 49996 kPa | 821.2
318.15 K, 57926 kPa | 825.8
318.16 K, 476 kPa | 785.1
318.16 K, 1004 kPa | 785.6
318.16 K, 1987 kPa | 786.5
318.16 K, 3033 kPa | 787.4
318.16 K, 5011 kPa | 789.2
318.16 K, 6978 kPa | 790.9
318.16 K, 10006 kPa | 793.4
318.16 K, 22040 kPa | 802.8
318.16 K, 32063 kPa | 809.9
318.16 K, 33988 kPa | 811.1
318.16 K, 34997 kPa | 811.8
318.16 K, 38029 kPa | 813.7
318.16 K, 39963 kPa | 815
318.16 K, 42133 kPa | 816.4
318.16 K, 51984 kPa | 822.4
318.16 K, 54987 kPa | 824.1
318.16 K, 60004 kPa | 827
318.16 K, 62005 kPa | 828.1
318.16 K, 65012 kPa | 829.7
318.16 K, 66081 kPa | 830.3
323.15 K, 539 kPa | 780.5
323.15 K, 1027 kPa | 781
323.15 K, 5007 kPa | 784.7
323.15 K, 7056 kPa | 786.5
323.15 K, 9085 kPa | 788.3
323.15 K, 10245 kPa | 789.3
323.15 K, 12118 kPa | 790.8
323.15 K, 15027 kPa | 793.2
323.15 K, 18033 kPa | 795.6
323.15 K, 20133 kPa | 797.2
323.15 K, 25015 kPa | 800.9
323.15 K, 28096 kPa | 803.1
323.15 K, 33113 kPa | 806.7
323.15 K, 37980 kPa | 809.9
323.15 K, 40058 kPa | 811.2
323.15 K, 42026 kPa | 812.5
323.15 K, 50034 kPa | 817.5
323.15 K, 52055 kPa | 818.7
